Molecular target: MDM2 (Homo sapiens, UniProt Q00987)
Experiment: Fluorescence polarization
Assay type: binding
Conditions: FP; 4-chloro-phenyl anchor instead of 6-chloro-indole

Sequence of MDM2 (Q00987 whole entry): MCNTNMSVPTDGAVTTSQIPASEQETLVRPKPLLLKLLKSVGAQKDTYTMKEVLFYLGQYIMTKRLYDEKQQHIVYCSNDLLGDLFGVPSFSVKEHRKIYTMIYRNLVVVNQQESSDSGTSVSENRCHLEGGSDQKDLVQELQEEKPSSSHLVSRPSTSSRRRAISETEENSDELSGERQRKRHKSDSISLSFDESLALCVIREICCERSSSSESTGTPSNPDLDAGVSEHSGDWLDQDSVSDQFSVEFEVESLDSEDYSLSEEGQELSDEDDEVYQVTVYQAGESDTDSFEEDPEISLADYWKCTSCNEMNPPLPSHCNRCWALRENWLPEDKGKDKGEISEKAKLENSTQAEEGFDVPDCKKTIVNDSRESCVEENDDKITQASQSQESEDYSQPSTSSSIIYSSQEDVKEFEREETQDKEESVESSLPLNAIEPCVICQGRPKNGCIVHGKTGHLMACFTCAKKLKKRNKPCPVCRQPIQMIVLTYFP

Structure (SMILES): CC(C)(C)NC(=O)C(c1ccc(Cl)cc1)N1C(=O)CC1c1ccc(OCc2ccccc2)cc1 (stereo not shown) [Compound 2g]
- activity against MDM2/X: did not show any activity

Source: PMC5637554 (MedChemComm, 2017)
